# From patent US20250026759A1 (Merck Sharp & Dohme LLC, priority 2023, published 2025)
# System: PBMCs infected with VSV-G pseudotyped HIV virus (VSV-G/pNLG1-P2A-ΔEnv)
# Assay: cells
# Assay type: cell-based, human
# Details: Homo sapiens, PBMC, read-out: TACK EC50
row,SMILES,EC50 [nM]
1,"COCc1ccn(Cc2cc3c(cc2F)[C@@](C#CC2CC2)(C(C)(F)F)N(C)C(=O)N3)n1 [Example 112, (S)-4-(cyclopropylethynyl)-4-(1,1-difluoroethyl)-6-fluoro-7-((3-(methoxymethyl)-1H-pyrazol-1-yl)methyl)-3-methyl-3,4-dihydroquinazolin-2(1H)-one]",18.1
2,"COc1nn(Cc2cc3c(cc2F)[C@@](C#CC2CC2)(C(C)(F)F)NC(=O)N3)cc1F [Example 115, (S)-4-(cyclopropylethynyl)-4-(1,1-difluoroethyl)-6-fluoro-7-((4-fluoro-3-methoxy-1H-pyrazol-1-yl)methyl)-3,4-dihydroquinazolin-2(1H)-one]",19.8
3,"Cc1nnn(Cc2cc3c(cc2F)[C@@](C#CC2CC2)(C(F)(F)F)NC(=O)N3)n1 [Example 118, (S)-4-(cyclopropylethynyl)-6-fluoro-7-((5-methyl-2H-tetrazol-2-yl)methyl)-4-(trifluoromethyl)-3,4-dihydroquinazolin-2(1H)-one]",36.4
4,"O=C1Nc2cc(Cc3[nH]nc4ccccc34)c(F)cc2[C@@](C#CC2CC2)(C(F)(F)F)N1 [Example 119, (S)-7-((2H-indazol-3-yl)methyl)-4-(cyclopropylethynyl)-6-fluoro-4-(trifluoromethyl)-3,4-dihydroquinazolin-2(1H)-one]",57.8
5,"CC(F)(F)[C@@]1(C#CC2CC2)NC(=O)Nc2cc(Cn3ccc(S(N)(=O)=O)n3)c(F)cc21 [Example 120, (S)-1-((4-(cyclopropylethynyl)-4-(1,1-difluoroethyl)-6-fluoro-2-oxo-1,2,3,4-tetrahydroquinazolin-7-yl)methyl)-1H-pyrazole-3-sulfonamide]",61.7
6,"CC(F)(F)[C@@]1(C#CC2CC2)NC(=O)Nc2cc(Cn3cc(C(F)F)cn3)c(F)cc21 [Example 121, (S)-4-(cyclopropylethynyl)-4-(1,1-difluoroethyl)-7-((4-(difluoromethyl)-1H-pyrazol-1-yl)methyl)-6-fluoro-3,4-dihydroquinazolin-2(1H)-one]",67.9
7,"Cn1cnn(Cc2cc3c(cc2F)[C@@](C#CC2CC2)(C(C)(F)F)NC(=O)N3)c1=O [Example 122, (S)-4-(cyclopropylethynyl)-4-(1,1-difluoroethyl)-6-fluoro-7-((4-methyl-5-oxo-4,5-dihydro-1H-1,2,4-triazol-1-yl)methyl)-3,4-dihydroquinazolin-2(1H)-one]",74.2
8,"COc1cnn(Cc2cc3c(cc2Cl)[C@@](C#CC2CC2)(C(F)(F)F)NC(=O)N3)c1 [Example 123, (S)-6-chloro-4-(cyclopropylethynyl)-7-((4-methoxy-1H-pyrazol-1-yl)methyl)-4-(trifluoromethyl)-3,4-dihydroquinazolin-2(1H)-one]",79
9,"CN(C)Cc1ccn(Cc2cc3c(cc2F)[C@@](C#CC2CC2)(C(C)(F)F)NC(=O)N3)n1 [Example 126, (S)-4-(cyclopropylethynyl)-4-(1,1-difluoroethyl)-7-((3-((dimethylamino)methyl)-1H-pyrazol-1-yl)methyl)-6-fluoro-3,4-dihydroquinazolin-2(1H)-one]",101
10,"Cc1ccn(Cc2ccc3c(c2)NC(=O)N[C@]3(C#CC2CC2)C(F)(F)F)n1 [Example 127, (S)-4-(cyclopropylethynyl)-7-((3-methyl-1H-pyrazol-1-yl)methyl)-4-(trifluoromethyl)-3,4-dihydroquinazolin-2(1H)-one]",103
11,"Cc1nn(Cc2cc3c(cc2F)[C@@](C#CC2CC2)(C(C)(F)F)NC(=O)N3)c(=O)n1C [Example 128, (S)-4-(cyclopropylethynyl)-4-(1,1-difluoroethyl)-7-((3,4-dimethyl-5-oxo-4,5-dihydro-1H-1,2,4-triazol-1-yl)methyl)-6-fluoro-3,4-dihydroquinazolin-2(1H)-one]",115
12,"CC(C)(O)c1ccn(Cc2cc3c(cc2F)[C@@](C#CC2CC2)(C(C)(F)F)NC(=O)N3)n1 [Example 129, (S)-4-(cyclopropylethynyl)-4-(1,1-difluoroethyl)-6-fluoro-7-((3-(2-hydroxypropan-2-yl)-1H-pyrazol-1-yl)methyl)-3,4-dihydroquinazolin-2(1H)-one]",171
